≈ marks a conversion by molar mass, not a printed value.
Assays:
Enterococcus faecalis = test system: Enterococcus faecalis; design: method as in PMID 37687129, PMID 7622440; conditions: cited from earlier work
[1] = test system: C. albicans ATCC10231 biofilm formation; test: Anti-biofilm activity assessment (crystal violet); format: cell-based, Candida albicans; conditions: for inhibition of biofilm formation (in words): data not shown
Procedure: Anti-biofilm activity assessment: The effect of compounds on biofilms formation was determined on C. albicans ATCC 10231 strain. Anti -biofilm assays were conducted using a previously reported methodology with small modifica tions.9 The assay was carried out in 96 - well round-bottom polystyrene microtiter plates. Cells wer e harvested from overnight grown cultures, washed twice with sterile phosphate -buffered saline (PBS; Sigma -Aldrich, Munich, Germany), and resuspended in RPMI 1640 medium (Sigma -Aldrich) containing 2% glucose (w/v) at a concentration of 1 × 10^5 CFU/mL. C. albicans suspension was incubated with 0.5 MIC, 1 MIC, and 2 MIC compounds concentration in 200.0 μL final volume per well for 48 h at 37 °C to allow biofilm formation. Biofilm growth was analyzed by crystal violet (CV) staining of adherent cells and the a bsorbance at 590.0 nm was read on a Tecan Infinite 200 Pro multiplate reader (Tecan Group Ltd., Männedorf, Switzerland). […]

[2] = test system: C. albicans ATCC 10231 hyphae formation; test: Filamentation test on Candida (solid spider medium); format: cell-based, Candida albicans; conditions: for relative activity in inhibition of filament formation (in words): compared with 36 and 41, sub-inhibitory concentrations
Procedure: Filamentation test on Candida: Using solid composition, the effect of sorrentano ne […]
albicans cells from an overnight culture grown in Sabouraud dextrose broth medium at 37 °C with or without compounds were centrifuged for 10 minutes at maximum speed, and the pellet was washed several times with sterile PBS (phosphate -buffered saline). After it, the pellet was resuspended in 200 µL PBS, and 2 µL of cell suspension was poured over solid composition and incubated at 37 °C for 120 h. Morphological changes of C. albicans ATCC

[3] = test system: various Streptococcus and Staphylococcus species; design: method as in PMID 37687129, PMID 7622440; conditions: cited from earlier work
[4] = test system: human lung fibroblast cell line (MRC-5); test: Cytotoxicity evaluation by MTT assay; format: cell-based
Source text: (§1) 3. Bioactivity and Toxicity Assays
(§2) Antimicrobial assay: According to the standard broth micro-dilution assays, following the Standards of European Committee on Antimicrobial Susceptibility Testing (v 7.3.1: Method for the determination of broth dilution minimum inhibitory concentrations of antifungal agents for yeasts) for Candida spp., and according to the standard broth micro-dilution assays, recommended by the National Committee for Clinical Laboratory Standards (M07-A8) for bacteria MIC values of compounds were determinate. Compounds were dissolved in DMSO at a concentration of 50 mg/mL, and the highest tested concentration was 250 µg/mL. The inoculums were 1x10^5 colony forming units (CFU/mL), for Candida species, and bacteria species, 5x10^5 colony forming units (CFU/mL). The MIC value was recorded as the lowest concentration that inhibited the growth after 24 h at 37 °C. Additionally, 5 µL from each well of 96 well plates was transferred to Luria Agar (LA) plates for bacteria and Sabouraud agar (SAB) plates for Candida spp. and incubated for an additional 24 h at 37 °C, to determine MBC (Minimum bactericidal/fungicidal concentration) values. In Table 1. Are labeled compounds showing a difference in MBC and previously determined MIC values.
Cytotoxicity evaluation: Antiproliferative activity was tested by MTT assay (3-(4,5-dimethylthiazol-2-yl)-2,5-diphenyltetrazoliumbromide) on a human lung fibroblast cell line (MRC-5; ATCC collection). Pre-grown (24 h) cell monolayers (1x10^4 cells per well) in RPMI 1640 medium supplemented with 100 μg/mL streptomycin, 100 U/mL penicillin, and 10% (v/v) FBS (all from Sigma, Munich, Germany) containing the tested compounds at concentrations ranging from 5 to 20 μg/mL were incubated in a humidified atmosphere of 95% air and 5% CO2 at 37 °C for 48 h. The cell viability (extent of MTT reduction) was measured spectrophotometrically at 540 nm using the Epoch 2000 multiplate reader, and the cell survival was expressed as a percentage of the control (untreated cells). Cytotoxicity was expressed as the concentration of the compound inhibiting cell growth by 50% (IC 50). […]

B. subtilis ATCC6633 = test: Antimicrobial broth micro-dilution assay (MIC); format: cell-based; conditions: Bacillus subtilis; B. subtilis ATCC6633; 24 h at 37 °C; highest tested concentration 250 µg/mL; read-out: Minimum inhibitory concentration (MIC)
Source text: as §1
as §2, with “MIC values. […]” for “MIC values.”

C. albicans ATCC10231 = test: Antimicrobial broth micro-dilution assay (MIC); format: cell-based; conditions: Candida albicans; C. albicans ATCC10231; 24 h at 37 °C; highest tested concentration 250 µg/mL; read-out: Minimum inhibitory concentration (MIC)
Source text: as §1
as §2, with “MIC values. […]” for “MIC values.”

S. aureus ATCC25923 = test: Antimicrobial broth micro-dilution assay (MIC); format: cell-based; conditions: Staphylococcus aureus; S. aureus ATCC25923; 24 h at 37 °C; highest tested concentration 250 µg/mL; read-out: Minimum inhibitory concentration (MIC)
Source text: as §1
as §2, with “MIC values. […]” for “MIC values.”

E. coli NCTC9001 = test: Antimicrobial broth micro-dilution assay (MIC); format: cell-based; conditions: Escherichia coli; E. coli NCTC9001; 24 h at 37 °C; highest tested concentration 250 µg/mL; read-out: Minimum inhibitory concentration (MIC)
Source text: as §1
as §2, with “MIC values. […]” for “MIC values.”

S. aureus MRSA = test: Antimicrobial broth micro-dilution assay (MIC); format: cell-based; conditions: Staphylococcus aureus; S. aureus MRSA; 24 h at 37 °C; highest tested concentration 250 µg/mL; read-out: Minimum inhibitory concentration (MIC)
Source text: as §1
as §2, with “MIC values. […]” for “MIC values.”

P. aeruginosa ATCC27853 = test: Antimicrobial broth micro-dilution assay (MIC); format: cell-based; conditions: Pseudomonas aeruginosa; P. aeruginosa ATCC27853; 24 h at 37 °C; highest tested concentration 250 µg/mL; read-out: Minimum inhibitory concentration (MIC)
Source text: as §1
as §2, with “MIC values. […]” for “MIC values.”

[5] = test system: ergosterol in C. albicans; test: Ergosterol biosynthesis assay; format: cell-based, Candida albicans; conditions: 0.5 MIC; Candida cells; UV profile
Procedure: Ergosterol biosynthesis assay: Ergosterol levels were measured according to the published procedure with some minor modifications. 10 Briefly, a sing le C. albicans colony from an overnight Sabouraud dextrose agar plate was used to inoculate 50 ml of Sabouraud dextrose broth containing 0.5 MIC concentrated compounds. Incubation was performed for 18 h at 37 °C on the rotary shaker at 180 rpm. Cells were harvested by centrifugation at 3000 rpm for 5 min and washed once with sterile distilled water. The net wet weight of the cell pellet was determined. Three milliliters of 25% alcoholic potassium hydroxide solution (25 g of KOH and 35 ml of sterile distill ed water, brought to 100 ml with 100% ethanol), was added to each pellet and vortex mixed for 1 min and incubated in an 85 °C water bath for 1 h. Tubes were cooled to room temperature and extraction of sterols was done with the addition of a mixture of 1 ml of sterile distilled water and 3 ml of n-heptane followed by vigorous vortex mixing for 3 min. The heptane layer was used for spectrophotometrically measuring ergosterol concentrations by scanning absorbance between 240 nm and 300 nm using Ultrospec 3300pro 573 (Amer sham Biosciences, Amersham, UK).

Bacillus subtilis = test system: Bacillus subtilis; design: method as in PMID 37687129, PMID 7622440; conditions: cited from earlier work
[6] = test system: two S. aureus strains and B. subtilis ATCC6633; test: Antimicrobial assay, Gram-positive bacteria; format: cell-based; conditions: from MIC values
Source text: as §1
as §2, with “MIC values. […]” for “MIC values.”

Compound	IC50 (Enterococcus faecalis) [µg/mL]	inhibition of biofilm formation (in words) [1]	inhibition of biofilm formation ([1]; sub-inhibitory concentration (0.5 times MIC), 48 h)	filamentation (in words) ([2]; 0.5 times MIC, 120 h, C. albicans ATCC10231)	relative activity in inhibition of filament formation (in words) [2]	IC50 [3] [µg/mL]	in vitro toxicity ranking (in words) ([4]; MRC-5 cells)	selectivity index (SI) ([4]; cytotoxicity versus antibiotic activity, calculation not described)	MIC (B. subtilis ATCC6633) [µg/mL]	MIC (C. albicans ATCC10231) [µg/mL]	MIC (S. aureus ATCC25923) [µg/mL]	MIC (E. coli NCTC9001) [µg/mL]	MIC (S. aureus MRSA) [µg/mL]	MIC (P. aeruginosa ATCC27853) [µg/mL]	reduction of total amount of ergosterol (in words) [5]	IC50 (Bacillus subtilis) [µg/mL]	improvement of antibacterial activity compared to sorrentanone (7) [6]
C/C=C/C=C/C(=O)C1=C(C)C(=O)C(O)=C(C)C1=O [compound 7, sorrentanone]	128 (≈ 520 µM)	displayed inhibition of biofilm formation	60–77%	already show filamentation after 120 h	less active	16.0 to 64.0	highest toxicity	1.12	62.5 (≈ 254 µM)	125 (≈ 508 µM)	62.5 (≈ 254 µM)	> 250	31.2 (≈ 127 µM)	> 250	most potent in reducing the total amount of ergosterol	32.0 (≈ 130 µM)	–
C=CCCCOC(=O)C1=C(C)C(=O)C(O)=C(C)C1=O [compound 39]	–	displayed inhibition of biofilm formation	–	–	less active	–	–	–	15.6 (≈ 59 µM)	62.5 (≈ 236 µM)	62.5 (≈ 236 µM)	> 250	62.5 (≈ 236 µM)	> 250	most potent in reducing the total amount of ergosterol	–	two- to four-fold improved activity

Reference: PMC12227560, “Total synthesis of a sorrentanone ester library and evaluation of its antimicrobial potential” (Scientific Reports, 2025)
